{"source": "patent US9393249B2", "about": "“Antimicrobial composition” (INSTITUTE OF TECHNOLOGY SLIGO, priority 2008, dated 2016)"}
{"system": "clinical isolates of Mastitis causing Staphylococcus aureus", "assay": "Inhibition assay (3 day repeats) on mastitis clinical isolates", "assay_type": "cell-based", "conditions": "FIG. 11b", "method": "• Escherichia coli (NCIMB 8545), Staphylococcus aureus (NCIMB 9518) and Pseudomonas aeruginosa (NCIMB 8626) are grown on nutrient agar or in nutrient broth for 24 hrs at 37° C. • Candida albicans (NCIMB 3179) and Saccharomyces cerevisiae are grown on sabaroud dextrose agar or in sabaroud dextrose broth for 24 hrs at 37° C. • Propionibacterium acnes (P. acnes ATCC/NTC 11827) is grown anaerobically on blood agar or in nutrient broth for 72 hrs at 37° C. • 22 isolates of Staphylococcus aureus from clinical mastitis obtained from Sligo regional Veterinary Laboratories are grown on nutrient agar or in nutrient broth for 24 hrs at 37° C. • For testing conducted in the Sligo Regional General Hospital; five Beta haemolytic Streptococci Group A clinical isolates are grown on blood agar or in nutrient broth for 24 hrs at 37° C. • Campylobacter coli (NCTC 11366) is grown on brain heart infusion agar or in brain heart infusion broth for 72 hrs at 37° C. • Campylobacter jejuni (NCTC 11322) and three clinical isolates are grown on brain heart infusion agar or in brain heart infusion broth for 72 hrs at 37° C. • MRSA (ATCC 43300) and seven clinical isolates are grown on nutrient agar or in brain heart infusion broth for 72 hrs at 37° C. • Laboratory mould isolates are grown on sabaroud dextrose agar or in sabaroud dextrose broth for 48 hrs at 25° C. • Botrytis cinerea is grown on sabaroud dextrose agar or in sabaroud dextrose broth for 48 hrs at 25° C.\nAgar plates are inoculated by swabbing overnight culture onto the plate surface. Plates are allowed to stand at room temperature for 15 minutes before use. Wells 8.2 mm diameter are bored into the surface of the agar. One hundred and eighty μl of sample is placed into each well. The samples diffuse into the agar around the well and are assayed for an ability to produce a zone of inhibition. Plates are incubated for 24, 48 or 72 hrs and zones of inhibition are measured using an Autodata automatic zone reader. The diameter of zones, including the diameter of the well (8.2 mm), is recorded. […]"}
{"smiles": "O=C(N[C@H](CO)[C@H](O)c1ccc([N+](=O)[O-])cc1)C(Cl)Cl", "note": "[Chloramphenicol]", "sensitivity of clinical isolate number 15": "only mild sensitivity"}
{"smiles": "[H]/N=C(/N)N[C@H]1[C@H](O)[C@@H](O)[C@H](O[C@@H]2O[C@@H](C)[C@](O)(C=O)[C@H]2O[C@@H]2O[C@@H](CO)[C@H](O)[C@@H](O)[C@@H]2NC)[C@@H](N/C(N)=N\\[H])[C@@H]1O", "note": "[Streptomycin]", "sensitivity of clinical isolate number 15": "resistant"}
{"smiles": "CN[C@H](CC(C)C)C(=O)N[C@H]1C(=O)N[C@@H](CC(N)=O)C(=O)N[C@H]2C(=O)N[C@H]3C(=O)N[C@H](C(=O)N[C@H](C(=O)O)c4cc(O)cc(O)c4-c4cc3ccc4O)[C@H](O)c3ccc(c(Cl)c3)Oc3cc2cc(c3O[C@@H]2O[C@H](CO)[C@@H](O)[C@H](O)[C@H]2O[C@H]2C[C@](C)(N)[C@H](O)[C@H](C)O2)Oc2ccc(cc2Cl)[C@H]1O", "note": "[Vancomycin]", "sensitivity of clinical isolate number 15": "resistant"}
{"system": "S. aureus NCIMB 9587", "assay": "Checkerboard synergy test", "assay_type": "cell-based, Staphylococcus aureus", "conditions": "MIC as two-fold dilution fraction of each agent's final dilution (A^3IS 3%; antibiotics 1:100 to 1:3,200,000); overnight 35° C.", "method": "Stock solutions were prepared according to published standards (CLSI (Clinical and Laboratory Standards Institute): Performance Standards for Antimicrobial Susceptibility testing. Fifteenth Informational Supplement. CLSI document M100-S15. Pennsylvania USA 2005, 19087-1898)\nSynergy tests were performed in 96-well microtiter plates containing the A^3IS (from Example 3)/antibiotic combinations in two fold dilutions dispensed in a checkerboard fashion on the day of the assay. Each well contained 0.1 mL of A^3IS/antimicrobial combinations. A suspension of S. aureus test culture was prepared from an overnight broth culture to yield a final inoculum of approximately 3×10^5 to 5×10^5 CFU/mL. Twenty microliters of this suspension was added to all but the sterility control wells. MICs were read after overnight incubation at 35° C. Growth and sterility controls were included in each plate. Each isolate was tested twice. Growth was determined by visually examining each well for evidence of turbidity.\nFor the first clear well in each row of the microtiter plate containing both antimicrobial agents, the fractional inhibitory concentration (FIC) was calculated as follows: FIC of drug A (FICA)=MIC of drug A in combination/MIC of drug A alone, and the FIC of drug B (FICB)=MIC of drug B in combination/MIC of drug B alone."}
{"smiles": "CC1(C)S[C@@H]2[C@H](NC(=O)[C@H](N)c3ccc(O)cc3)C(=O)N2[C@H]1C(=O)O", "note": "[Amoxicillin]", "MICs for A^3IS & antibiotics on S. aureus NCIMB 9587": "¼"}
{"smiles": "CC[C@H]1OC(=O)[C@H](C)[C@@H](O[C@H]2C[C@@](C)(OC)[C@@H](O)[C@H](C)O2)[C@H](C)[C@@H](O[C@@H]2O[C@H](C)C[C@H](N(C)C)[C@H]2O)[C@](C)(O)C[C@@H](C)C(=O)[C@H](C)[C@@H](O)[C@]1(C)O", "note": "[Erythrocin]", "MICs for A^3IS & antibiotics on S. aureus NCIMB 9587": "½"}
{"smiles": "Cc1onc(-c2c(F)cccc2Cl)c1C(=O)N[C@@H]1C(=O)N2[C@@H]1SC(C)(C)[C@@H]2C(=O)O", "note": "[Flucloxacillin]", "MICs for A^3IS & antibiotics on S. aureus NCIMB 9587": "½"}
{"smiles": "CC[C@H]1OC(=O)[C@H](C)[C@@H](O[C@H]2C[C@@](C)(OC)[C@@H](O)[C@H](C)O2)[C@H](C)[C@@H](O[C@@H]2O[C@H](C)C[C@H](N(C)C)[C@H]2O)[C@](C)(OC)C[C@@H](C)C(=O)[C@H](C)[C@@H](O)[C@]1(C)O", "note": "[KIacid]", "MICs for A^3IS & antibiotics on S. aureus NCIMB 9587": "½"}
{"smiles": "CC1=C(C(=O)O)N2C(=O)[C@@H](NC(=O)[C@H](N)C3=CCC=CC3)[C@H]2SC1", "note": "[Velocef, Cefradine]", "MICs for A^3IS & antibiotics on S. aureus NCIMB 9587": "¼"}
{"smiles": "CO/N=C(\\C(=O)N[C@@H]1C(=O)N2C(C(=O)O)=C(COC(N)=O)CS[C@H]12)c1ccco1", "note": "[Zinacef, Cefuroxime]", "MICs for A^3IS & antibiotics on S. aureus NCIMB 9587": "½"}
{"system": "Candida albicans", "assay": "Well/disc diffusion inhibition assay of combinations", "assay_type": "cell-based", "conditions": "50 μl A^3IS + 50 μg agent versus 100 μl A^3IS alone; FIG. 19", "method": "Various combinations of A^3IS (from Example 3) and antibiotics/antifungal agents were tested against a placebo and A^3IS alone using a well/disc diffusion method. […] Well/Disc Diffusion Methods for Measurement of Microbial Inhibition: Agar plates were inoculated by swabbing overnight culture onto the plate surface. Plates were allowed to stand at room temperature for 15 minutes before use. Wells 8.2 mm diameter were bored into the surface of the agar. 100 μl of samples (a) to (c) was placed into each well. The samples diffuse into the agar around the well and are assayed for an ability to produce a zone of inhibition. Plates are incubated for 24, 48 or 72 hrs and zones of inhibition are measured. The diameter of zones, including the diameter of the well (8.2 mm) was recorded."}
{"smiles": "Clc1ccccc1C(c1ccccc1)(c1ccccc1)n1ccnc1", "note": "[Clotrimazole]", "effect of combination with hydrogen peroxide source (zone of inhibition)": "effects going beyond a combination/additive effects with hydrogen peroxide"}
{"smiles": "Cc1cc(C2CCCCC2)n(O)c(=O)c1.NCCO", "note": "[Cyclopiroxalomine]", "effect of combination with hydrogen peroxide source (zone of inhibition)": "effects going beyond a combination/additive effects with hydrogen peroxide"}
{"smiles": "CC(=O)N1CCN(c2ccc(OCC3COC(Cn4ccnc4)(c4ccc(Cl)cc4Cl)O3)cc2)CC1", "note": "(centres unmarked) [Ketoconazole]", "effect of combination with hydrogen peroxide source (zone of inhibition)": "effects going beyond a combination/additive effects with hydrogen peroxide"}
{"smiles": "CN(C/C=C/C#CC(C)(C)C)Cc1cccc2ccccc12", "note": "[Terbidifine]", "effect of combination with hydrogen peroxide source (zone of inhibition)": "effects going beyond a combination/additive effects with hydrogen peroxide"}
{"system": "L929 cells", "assay": "ISO 10993-5 agar overlay cytotoxicity (neutral red)", "conditions": "24 hrs", "method": "ISO 10993, agar overlay tests for cytotoxicity: in vitro method is also used, employing L929 cells (mouse fibroblasts ECACC 85011425). In brief; a confluent monolayer of cells is incubated, this is then covered with a layer fresh medium (EMEM, 2 mM L-Glutamine, 5% FBS, 2% Penicillin-Streptomycin) containing 1.5 g/l of soft agar and allowed to solidify. One tenth of the surface is covered with test materials (previously described) and incubated for 24 hrs. Post incubation the test material is carefully removed and a vital stain (neutral red) in fresh media added. After incubation this is removed, the cells washed and then the dye extracted from the cells and quantified spectrophotometrically for cell viability.\nPercent toxicity was calculated according to the formula: % Toxicity=1−(OD average of test material wells/average OD of corresponding control wells (sodium azide added))×100. Included in the assay are a 50% concentration of A^3IS, a range of concentrations of commercial silver containing gel and commercial zinc containing gel product, compared to sodium azide (positive control). […] For the agar overlay toxicity assay the amount of test materials used was similar to that used for the initial direct contact assays of 100 mg per well however the contact time was extended to 24 hrs.", "units": {"% Toxicity": "%"}}
{"smiles": "[N-]=[N+]=[N-]", "note": "[sodium azide]", "% Toxicity": 100}
